Results reported in PubChem BioAssay (NCI).
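Each compound was tested at five concentrations against cells in 96-well plates for 48 hours. Abbreviation: GI50, concentration required for 50% inhibition of growth. TGI marks complete inhibition of growth.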

Columns and labels:
Assay in all cases: growth of human tumour cells (NCI), 48 h
DLD-1 colon = system: DLD-1 colon
HL-60(TB) leukemia = system: HL-60(TB) leukemia
HOP-92 NSCLC = system: HOP-92 NSCLC
KM20L2 colon = system: KM20L2 colon
OVCAR-3 ovarian = system: OVCAR-3 ovarian
RPMI-8226 leukemia = system: RPMI-8226 leukemia
SNB-78 CNS = system: SNB-78 CNS
LXFL 529 NSCLC = system: LXFL 529 NSCLC
IGROV1 ovarian = system: IGROV1 ovarian
BT-549 breast = system: BT-549 breast

Structure (SMILES) | TGI (DLD-1 colon) | TGI (HL-60(TB) leukemia) | TGI (HOP-92 NSCLC) | TGI (KM20L2 colon) | TGI (OVCAR-3 ovarian) | TGI (RPMI-8226 leukemia) | TGI (SNB-78 CNS) | TGI (LXFL 529 NSCLC) | TGI (IGROV1 ovarian) | GI50 (HL-60(TB) leukemia) | GI50 (HOP-92 NSCLC) | GI50 (OVCAR-3 ovarian) | GI50 (RPMI-8226 leukemia) | GI50 (BT-549 breast) | TGI (BT-549 breast) | GI50 (IGROV1 ovarian)
CC(C)CCCC(C)[C@H]1CCC2[C@H]3C(CC[C@@]21C)[C@@]1(C)CCC=C[C@]12C[C@@H]2[C@@H]3O (stereo partly drawn) | > 100 µM | > 100 µM | > 100 µM | > 100 µM | > 100 µM | > 100 µM | > 100 µM | > 100 µM | > 100 µM |  |  |  |  |  |  | 
Nc1ccn(C2(CO)C=C(CO)C(O)C2O)c(=O)n1 (stereo not drawn) | > 25.8 µM | > 25.8 µM |  | > 25.8 µM | > 25.8 µM | > 25.8 µM | > 25.8 µM | > 25.8 µM | > 25.8 µM |  |  |  |  |  |  | 
COC(=O)/C(C=O)=C/Sc1ccccc1 | 66 µM | > 100 µM | > 100 µM | 94.7 µM | 65.8 µM | > 100 µM | > 100 µM | 78.9 µM | 28.8 µM |  |  |  |  |  |  | 
COC(=O)OCC1OC(N2C(=O)NC(=O)C(Br)C2N=[N+]=[N-])CC1OC(=O)OC (stereo not drawn) | > 100 µM |  | > 100 µM | > 100 µM | > 100 µM | > 100 µM | > 100 µM | > 100 µM | > 100 µM |  |  |  |  |  |  | 
COc1cc2ccc3c4cc(OC)c(OC(C)C)cc4cnc3c2cc1OC | > 100 µM | > 100 µM | > 100 µM | > 100 µM | > 100 µM | > 100 µM | > 100 µM | > 100 µM | > 100 µM |  |  |  |  |  |  | 
CN[C@@H](C)[C@H](NC)c1ccccc1 | > 100 µM | > 100 µM | > 100 µM |  | > 100 µM | > 100 µM | > 100 µM | > 100 µM | > 100 µM |  |  |  |  |  |  | 
COC(=O)/C(C)=C/[N+](=O)[O-] | 4.16 µM | 40.1 µM | 22.8 µM | 55.5 µM | 29.6 µM | 7.36 µM | 49.8 µM | 27.9 µM | 44.1 µM |  |  |  |  |  |  | 
Nc1nc(CCl)nc(Nc2ccccc2)n1 | > 100 µM | 11.2 µM | 33.6 µM | 35.9 µM | 32.8 µM | 19.8 µM |  | 28.9 µM | 36.1 µM |  |  |  |  |  |  | 
CCOC(=O)CNC(=O)c1ccccc1Nc1ccnc(C(F)(F)F)c1 |  | > 100 µM | 7.62 µM |  | 56.9 µM | 35.1 µM |  |  | > 65.7 µM | 33.2 µM | 0.0572 µM | 20.2 µM | 12.7 µM | 42 µM | > 100 µM | 32.2 µM
Cc1ccc(C2(O)CC(c3ccc([N+](=O)[O-])o3)=NN2C(=O)COc2ccc(Cl)cc2)cc1 (stereo not drawn) | > 100 µM |  | 24.3 µM | 44.1 µM | 51.7 µM | > 21.2 µM | 58.9 µM | 10.9 µM | > 76.4 µM |  |  |  |  |  |  | 
C=CCNC(=O)N(CCC)CCCCC(NC(C)=O)C(=O)NCc1ccccc1 (stereo not drawn) |  | > 100 µM | > 100 µM | > 100 µM | > 100 µM | > 100 µM |  | > 100 µM | > 100 µM |  |  |  |  |  |  | 
CN(C)C(=S)/N=c1\ss/c(=N\C(=S)N(C)C)n1-c1ccc(Cl)c(Cl)c1 |  | > 100 µM |  | > 100 µM | > 100 µM | > 100 µM | > 100 µM |  | > 100 µM |  |  |  |  |  |  | 
COC(=O)/C(C#N)=C1\CCC(O)N1 (stereo not drawn) | > 100 µM | > 100 µM |  | > 100 µM | > 100 µM | > 100 µM | > 100 µM | > 100 µM | > 100 µM |  |  |  |  |  |  | 
CCCCC1(CN2CCOCC2)S/C(=N/c2nc(CC(=O)OCC)cs2)NC1=O (stereo not drawn) |  | 62.5 µM | > 100 µM |  | 67.7 µM | 80.6 µM |  |  | > 100 µM | 30.2 µM | 32.9 µM | 21.2 µM | 25.6 µM | 41.8 µM | > 100 µM | 55.3 µM
C=C1C[C@]23CCC4C(C)(C)C(=O)CC[C@]4(C)C2C[C@H]1C(O)C3=O (stereo partly drawn) | > 75 µM | > 75 µM |  | > 75 µM | > 75 µM | > 75 µM | > 75 µM | > 75 µM | > 75 µM |  |  |  |  |  |  | 
COc1cc2cccc(N=Cc3cccc(OC)c3OC(C)C)c2cc1OC | 70 µM |  |  | > 100 µM | 41 µM | 37.7 µM | > 100 µM | 31.1 µM | 70.2 µM |  |  |  |  |  |  | 
CC(C)S(=O)(=O)c1ccccc1Nc1nc(Nc2cccc(NC(=O)CN)c2)ncc1Cl |  | 0.55 µM | 1.55 µM |  | 3.75 µM | 2.41 µM |  |  | 12.6 µM | 0.103 µM | 0.102 µM | 0.158 µM | 0.254 µM | 0.149 µM | 1 µM | 0.263 µM
CC1(C)O/C(=C\c2ccccc2)C(=O)/C(=C/c2ccccc2)O1 | > 100 µM | 29.4 µM | > 100 µM |  | > 100 µM | 54.6 µM | > 100 µM | > 100 µM | > 100 µM |  |  |  |  |  |  | 
O=C(Nc1cc(Cl)ccc1Cl)C(=O)C(c1cnc2ccccc2n1)[N+](=O)[O-] (stereo not drawn) | > 100 µM | > 100 µM | > 100 µM | > 100 µM | > 100 µM | > 100 µM | > 100 µM | > 100 µM | > 100 µM |  |  |  |  |  |  | 
CN1NC(=Nc2ccccc2)Sc2c1cnn(-c1ccccc1)c2=O | > 100 µM | > 100 µM | > 100 µM | > 100 µM | 90.6 µM | > 100 µM |  | > 100 µM | > 100 µM |  |  |  |  |  |  | 
